pIC50: −log10 of the molar value. Where a name gives a salt, the structure may show the parent alone.
target: T1, cloned rat PDE10A full-length enzyme (Rattus norvegicus, UniProt Q9QYJ6); assay: PDE10 enzyme inhibition, [3H]cAMP scintillation proximity assay; assay type: biochemical; conditions: rat PDE10A from Sf9 cells, 20 nM [3H]cAMP, SPA beads, 20 minute incubation at room temperature
T1 construct: cloned rat PDE10A full-length enzyme grown in transfected Sf9 insect cells; made in house; host or cells: Sf9 insect cells
T1 sequence (Q9QYJ6 1-794): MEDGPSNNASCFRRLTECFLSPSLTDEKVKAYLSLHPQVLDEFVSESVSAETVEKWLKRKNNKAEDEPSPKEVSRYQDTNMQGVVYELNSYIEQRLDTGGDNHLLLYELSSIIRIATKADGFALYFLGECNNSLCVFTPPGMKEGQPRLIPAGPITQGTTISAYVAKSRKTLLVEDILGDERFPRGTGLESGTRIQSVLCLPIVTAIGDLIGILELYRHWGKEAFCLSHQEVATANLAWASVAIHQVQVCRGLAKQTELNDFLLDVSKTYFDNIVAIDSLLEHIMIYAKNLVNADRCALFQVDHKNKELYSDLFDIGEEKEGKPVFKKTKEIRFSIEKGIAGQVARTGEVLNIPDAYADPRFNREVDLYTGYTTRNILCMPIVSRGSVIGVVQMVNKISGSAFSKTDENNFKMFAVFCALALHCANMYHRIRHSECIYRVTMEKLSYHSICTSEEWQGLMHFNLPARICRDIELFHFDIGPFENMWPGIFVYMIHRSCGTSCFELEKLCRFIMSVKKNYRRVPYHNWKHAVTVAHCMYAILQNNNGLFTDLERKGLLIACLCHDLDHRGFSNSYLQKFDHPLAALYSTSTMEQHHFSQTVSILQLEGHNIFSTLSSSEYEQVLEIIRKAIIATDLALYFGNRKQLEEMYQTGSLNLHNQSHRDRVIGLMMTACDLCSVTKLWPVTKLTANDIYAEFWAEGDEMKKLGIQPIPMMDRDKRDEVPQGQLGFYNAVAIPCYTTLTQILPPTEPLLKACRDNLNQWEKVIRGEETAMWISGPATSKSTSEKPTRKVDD
Method: Compounds of the present invention were evaluated for ability to inhibit PDE10 enzyme with the following Assay procedure
The enzyme used in the procedure was cloned rat PDE10A full-length enzyme grown in transfected Sf9 insect cells. Cloned enzyme was extracted from homogenized cell pellets and stored frozen in homogenizing buffer until use. Compounds were initially dissolved in 100% DMSO and diluted out in 20 percent DMSO/water solution. Final concentration of DMSO in the assay was 2 percent as compounds were tested in triplicate in 96 well plates. Compound solution was placed in well, then tritiated cyclic AMP (New England Nuclear NET275) in assay buffer was added at 20 nM concentration. Then PDE10 enzyme in assay buffer of 50 mM Tris, 8.3 mM MgCl2, pH 7.5 at room temperature was added for a final assay volume of 100 ul. Concentration of enzyme was added such that less than 10 percent of [3H]cAMP at 20 nM was converted to detectable end product, [3H]AMP bound to SPA (Scintillation Proximity Assay) beads. Phosphodiesterase scintillation proximity yttrium silicate beads from Amersham Biosciences (RPNQ0150) were added (50 ul at 20 mg/ml) after a 20 minute incubation at room temperature. Zinc sulphate as a component of the beads stops the phosphodiesterase reaction.
Non-specific binding to SPA beads was determined by addition of 1 uM papaverine. Total conversion by enzyme without inhibitor of [3H]cAMP to [3H]AMP, as detected by scintillation of [3H]AMP bound to yttrium silicate beads, was determined in the presence of vehicle-only.

| pIC50 | SMILES |
| --- | --- |
| 7.17 | c1ccc(-c2cn(-c3cccnc3)c(-c3ccc(-n4nnc5ccccc54)cc3)n2)nc1 [Example 42, 1-(4-(4-(pyridin-2-yl)-1-(pyridin-3-yl)-1H-imidazol-2-yl)phenyl)-1H-benzo[d][1,2,3]triazole bis-TFA salt] |
| 7.85 | CNCc1ccc(-n2cc(-c3nccs3)nc2-c2ccc(-n3ccc4cccnc43)cc2)cc1 [Example 33, (4-(2-(4-(1H-pyrrolo[2,3-b]pyridin-1-yl)phenyl)-4-(thiazol-2-yl)-1H-imidazol-1-yl)phenyl-N-methylmethanamine Hydrochloride] |
| 8.55 | Cc1ccc(-n2cc(-c3ccccn3)nc2-c2ccc(-n3ccc4cc(F)cnc43)cc2)cn1 [Example 21, 5-fluoro-1-(4-(1-(6-methylpyridin-3-yl)-4-(pyridin-2x-yl)-1H-imidazol-2-yl)phenyl)-1H-pyrrolo-[2,3-b]pyridine] |
| 8.18 | CNCCc1ccc(-n2cc(-c3nccs3)nc2-c2ccc(-n3ccc4cccnc43)cc2)cc1 [Example 31] |
| 7.87 | c1ccc(-n2cc(-c3nccs3)nc2-c2ccc(-n3ccc4cccnc43)cc2)nc1 [Example 24] |
| 8.03 | Cc1ccc(-n2cc(-c3ccccn3)nc2-c2ccc(-n3ccc4ncccc43)cc2)cn1 [Example 52, 1-(4-(1-(6-methylpyridin-3-yl)-4-(pyridin-2-yl)-1H-imidazol-2-yl)phenyl)-1H-pyrrolo[3,2-b]pyridine] |
| 8.05 | CN(C)CCc1cn(-c2ccc(-c3nc(-c4ccccn4)cn3-c3cccnc3)cc2)c2ncccc12 [Example 10, N,N-dimethyl-2-(1-(4-(4-(pyridin-2-yl)-1-(pyridin-3-yl)-1H-imidazol-2-yl)phenyl)-1H-pyrrolo[2,3-b]pyridin-3-yl)ethanamine] |
| 7.75 | c1ccc(-c2nc(-c3cccnc3)n(-c3ccc(-n4ccc5cccnc54)cc3)n2)nc1 [Example 115, 1-(4-(3-(pyridin-2-yl)-5-(pyridine-3-yl)-1H-1,2,4-triazol-1-yl)phenyl)-1H-pyrrolo[2,3-b]pyridine] |
| 7.19 | Clc1ccc(-c2cn(-c3cncnc3)c(-c3ccc(-n4ccc5cccnc54)cc3)n2)s1 [Example 62, 1-(4-(4-(5-chlorothiophen-2-yl)-1-(pyrimidin-5-yl)-1H-imidazol-2-yl)phenyl)-1H-pyrrolo[2,3-b]pyridine] |
| 7.92 | Cc1cnc2c(ccn2-c2ccc(-c3nc(-c4ccccn4)cn3-c3ccc(C)nc3)cc2)c1 [Example 22, 5-methyl-1-(4-(1-[6-methylpyridin-3-yl)-4-(pyridin-2-yl)-1H-imidazol-2-yl)phenyl)-1H-pyrrolo[2,3-b]pyridine] |
| 7.20 | Cc1ccc(-n2cc(-c3ccccn3)nc2-c2ccc(-n3cnc4ncccc43)cc2)cn1 (single isomer, unassigned) [Example 48] |
| 6.56 | Cn1ccnc1-c1cn(-c2cncnc2)c(-c2ccc(-n3ccc4cccnc43)cc2)n1 [Example 67] |
| 6.28 | c1ccc(-c2cn(-c3cccnc3)c(-c3ccc(-n4ccnc4)cc3)n2)nc1 [Example 44, 3-(2-(4-(1H-imidazol-1-yl)phenyl)-4-(pyridin-2-yl)-1H-imidazol-1-yl)pyridine] |
| 8.40 | c1ccc(-c2cn(-c3cccnc3)c(-c3ccc(-c4cccc5cccnc45)cc3)n2)nc1 [Example 79, 8-(4-(4-(pyridin-2-yl)-1-(pyridin-3-yl)-1H-imidazol-2-yl)phenyl)quinoline] |
| 7.86 | Cc1csc(-c2cn(-c3cncnc3)c(-c3ccc(-n4ccc5cccnc54)cc3)n2)n1 [Example 63] |
| 8.34 | Cc1cc(-n2cc(-c3ccccn3)nc2-c2ccc(-n3ccc4cccnc43)cc2)ccn1 [Example 5, 1-(4-(1-(2-methylpyridin-4-(pyridin-2-yl)-1H-imidazol-2-yl)-1H-imidazol-2-yl)phenyl)-1H-pyrrolo[2,3-b]pyridine] |
| 7.96 | COc1ccc(-c2[nH]c(-c3cccs3)nc2-c2ccc(-n3ccnc3)cc2)cc1 [Example 106, 1-(4-(5-(4-methoxyphenyl)-2-(thiophen-2-yl)-1H-imidazol-4-yl)phenyl)-1H-imidazole] |
| 8.49 | c1ccc(-c2cn(-c3cccnc3)c(-c3ccc(-c4nccc5cccnc45)cc3)n2)nc1 [Example 78] |

| pIC50 | SMILES |
| --- | --- |
| 8.47 | COc1ccc(-n2cc(-c3cccs3)nc2-c2ccc(-n3ccc4cccnc43)cc2)cc1 [Example 1] |
| 8.65 | CN1CCN(c2ccc(-c3[nH]c(-c4cncs4)nc3-c3ccc(-n4ccc5cccnc54)cc3)cn2)CC1 [Example 107] |
| 6.81 | COc1ccc(-n2cc(-c3nccs3)nc2-c2ccc(-n3ccc4cccnc43)cc2)cc1 [Example 2, 1-(4-(1-(4-methoxyphenyl)-4-(thiazol-2-yl)-1H-imidazol-2-yl)phenyl)-1H-pyrrolo[2,3-b]pyridine] |
| 7.48 | c1ccc(-c2cn(-c3cccnc3)c(-c3ccc(-n4c(-c5ccccn5)nc5ccccc54)cc3)n2)nc1 [Example 43, 2-(pyridin-2-yl)-1-(4-(4-(pyridin-2-yl)-1-(pyridin-3-yl)-1H-imidazol-2-yl)phenyl)-1H-benzo[d]imidazole] |
| 7.99 | Cc1ccc(-n2cc(-c3ccccn3)nc2-c2ccc(-n3cnc4cncnc43)cc2)cn1 [Example 55, 9-(4-(1-(6-methylpyridin-3-yl)-4-(pyridin-2-yl)-1H-imidazol-2-yl)phenyl-9H-purine and 7-(4-(1-(6-methylpyridin-3-yl)-4-pyridin-2-yl)-1H-imidazol-2-yl))phenyl)-7H-purine] |
| 8.55 | COc1ccc(-c2[nH]c(-c3cccs3)nc2-c2ccc(-n3ccc4cccnc43)cc2)cc1 [Example 103] |
| 6.95 | Cc1cc(-n2cc(-c3nccn3C)nc2-c2ccc(-n3ccc4cccnc43)cc2)ccn1 [Example 66, 1-(4-(4-(1-methyl-1H-imidazol-2-yl)-1-(2-methylpyridin-4-yl)-1H-imidazol-2-yl)phenyl)-1H-pyrrolo[2,3-b]pyridine] |
| 7.87 | c1ccc(-c2cn(-c3cncnc3)c(-c3ccc(-n4ccc5cccnc54)cc3)n2)nc1 [Example 4] |
| 9.52 | COc1nc2cccnc2n1-c1ccc(-c2nc(-c3cncs3)cn2-c2ccc(C)nc2)cc1 [Example 116] |
| 7.17 | Clc1ccc(-c2ccc(-c3nc(-c4ccccn4)cn3-c3cncnc3)cc2)cc1 [Example 71, 5-(2-(4-(4-chlorophenyl)phenyl)-4-(pyridin-2-yl)-1H-imidazol-1-yl)pyrimidine] |
| 9.14 | Cc1ccc(-n2cc(-c3nccs3)nc2-c2ccc(-n3c(C(F)F)nc4cccnc43)cc2)cn1 [Example 84] |
| 8.64 | Cc1ccc(-n2cc(-c3ccccn3)nc2-c2ccc(-n3ccc4cncnc43)cc2)cn1 [Example 74, 7-(4-(1-(6-methylpyridin-3-yl)-4-(pyridin-2-yl)-1H-imidazol-2-yl)phenyl)-7H-pyrrolo[2,3-d]pyrimidine] |
| 8.24 | Cc1ccc(-n2cc(-c3ccccn3)nc2-c2ccc(-n3ccc4ccncc43)cc2)cn1 [Example 53] |
| 6.76 | Cc1cc(-c2nc(-c3cncs3)[nH]c2-c2cnccn2)ccc1-n1ccc2cccnc21 [Example 112] |
| 9.04 | c1ccc(-c2cn(-c3cccnc3)c(-c3ccc(-n4c5c(c6cccnc64)CSCC5)cc3)n2)nc1 [Example 17, 9-[4-(4-pyridin-2-yl-1-pyridin-3-yl-1H-imidazol-2-yl)phenyl]-5,7,8,9-tetrahydrothiopyrano[3′,4′,4,5]pyrrolo[2,3-b]pyridine] |
| 7.80 | COc1ccc(-c2[nH]c(-c3cccs3)nc2-c2ccc(-n3ccc4cc(OC)ccc43)cc2)cc1 [Example 102, 5-methoxy-1-(4-(5-(4-methoxyphenyl)-2-(thiophen-2-yl)-1H-imidazol-4-yl)phenyl)-1H-indole] |
| 7.51 | Fc1cccc2ccn(-c3ccc(-c4nc(-c5ccccn5)cn4-c4cccnc4)cc3)c12 [Example 37] |

— patent US20080090834A1, “SELECTIVE AZOLE PDE10A INHIBITOR COMPOUNDS” (Pfizer Inc, priority 2006, published 2008)
